Data set [1] relates to HCT116 cells. Put plainly: MTT viability of HCT116 cells in basal conditions. The class given is cell-based, human. The conditions noted are these: for IC50: Homo sapiens. The method, then: (§1) HCT116 cell line (ATCC® CCL-247™) was cultured in DMEM (Euroclone) supplemented with 10% (v/v) heat-inactivated foetal bovine serum and 1.2% (v/v) penicillin G/streptomycin in 75 cm^2 tissue culture flask (n=5 individual culture flasks for each condition) as previously reported with or without serotonin treatment.
(§2) In the same condition, the kynurenic acid (KA) extracellular level was determined through a validated high performance liquid chromatography (HPLC)-fluorimetric method. To assess the cytotoxicity of synthesised compounds (VIa–o), a viability assay was performed on 96 microwell plates, using 3-(4,5-dimethylthiazol-2-yl)-2,5-diphenyltetrazolium bromide (MTT) test. Cells were incubated with compounds (10 µg/mL) for 24 h. An aliquot of 10 µL of MTT (5 mg/mL) was added to each well and incubated for 3 h. The viability of HCT116 cell line was evaluated both in basal conditions and after challenging with serotonin (5-HT) at 1 ng/mL. The anti-proliferative effects were compared to that induced by daunorubicin (0.1–20 µg/mL), used as reference drug.
Considering the effects induced by all compounds on HCT116 viability and KA production, compounds VIc, VIe and VIk were further assayed in order to deepen our knowledge about their anti-proliferative effects, in basal conditions. Specifically, HCT116 cells were stimulated with the aforementioned compounds, in a wider concentration range (0.1–20 µg/mL), with respect to the initial test. Additionally, the anti-proliferative effects induced by these compounds were compared with that of daunorubicin, used as anti-tumoral reference drug in the same concentration range.

In data set [2] the test system is HCT116 cells. Put plainly: Wound healing paradigm (spontaneous migration of HCT116 cells). In kind it is cell-based, human. The conditions noted are these: compounds at their IC50 (VIe 3.09 µg/mL, VIk 2.73 µg/mL), 48 h after lesion of cell monolayer. How it is done: The detailed protocol related to wound healing experimental model was described in our previous article.
Finally, considering their potencies in reducing HCT116 cell viability, compounds VIe and VIk were further studied in order to evaluate their effects on the spontaneous migration of HCT116 cells, through the wound healing paradigm. In this experiment, HCT116 cells were treated with compounds VIe and VIk at their respective IC50 values. The spontaneous migration of HCT116 cells was monitored in the 48 h following the experimental lesion of cell monolayer. The null effects on sponstaneous migration (Figure 6) rule out any involvement of the tested compounds in altering the invasion capacity of human colon cancer cells.

In data set [3] the test system is kynurenic acid (KA) release from colon cancer HCT116 cells. Kind of data set: Extracellular kynurenic acid (KA) level of 5-HT-stimulated HCT116 cells (HPLC-fluorimetric). The class given is cell-based, human. To be noted: for Effect on 5-HT-induced KA depletion: compounds 10 µg/mL, 5-HT 1 ng/mL, vs 5-HT group. The method, then:
as §1, §2
Furthermore, compounds were assayed for evaluating modulatory effects on the extracellular level of KA, one of the two main kynurenine metabolites. Kynurenic acid was reported to be produced in multiple tissues, including brain and peripheral organs, although pharmacokinetic studies excluded any possibility of the peripheral pool to cross blood-brain barrier. In the brain, the kynurenine-derived kynurenic acid was described as a reliable marker of neuroprotection[28]^,[29], whereas it seems to be involved in inflammatory response at the peripheral level. Kynurenic acid was also described as an anti-proliferative factor towards colon, renal, and glioma cells. Specifically, this marker was considered as a potential chemopreventive agent against colon cancer[32]^,[33]. […] They were able in potentiating 5-HT-induced KA depletion, as well.

The mark [4] stands for this setting: HCT-116, basal conditions, concentration range 0.1–20 µg/mL, MTT test, read-out: IC50 (HCT116 cell viability).

Values after ≈ are worked out from the molar mass of the structure shown. Values joined by “and” are separate entries in the source; they are usually repeats but may differ in a detail not shown here. Identical values can stand only once. Like-named read-outs stand apart in the source and are kept apart here.

As to `COc1ccc(-c2ccc(=O)n(CC(=O)NN=Cc3ccccc3Br)n2)cc1F` [VIk, N’-(2-bromobenzylidene)-2–(3-(3-fluoro-4-methoxyphenyl)-6-oxopyridazin-1(6H)-yl)acetohydrazide], the melting point (as a rule, the temperature, or range, at which the solid turns liquid) is 189 °C. Further, the IC50 (commonly the point on the concentration scale where inhibition reaches its midpoint) in the data set with HCT116 cells [1] (setting [4]) came to 2.73 µg/mL (≈ 5.94 µM). Also, the “Effect on spontaneous migration of HCT116 cells” value in the data set with HCT116 cells [2] is on record as “null effects”. As for `COc1ccc(-c2ccc(=O)n(CC(=O)NN=Cc3ccc(C(F)(F)F)cc3)n2)cc1F` [VIc, N’-(4-trifluoromethylbenzylidene)-2–(3-(3-fluoro-4-methoxyphenyl)-6-oxopyridazin-1(6H)-yl)acetohydrazide], the melting point stood at 252 °C. For the same compound, the 50% inhibitory concentration (IC50) in the data set with HCT116 cells [1] (setting [4]) was 15 µg/mL (≈ 33.5 µM). In addition, the “IC50 fold higher compared to daunorubicin” value with HCT116 cells [1] (basal conditions, HCT116 viability) is “at least 10 fold”. For the same compound, the “KA level compared to basal condition (CTR group)” value in data set [3] (compound 10 µg/mL, 5-HT-stimulated HCT116 cells) is “even higher compared to basal condition”. The “Effect on 5-HT-induced KA depletion” value in data set [3] was “able to blunt 5-HT-induced KA depletion”. As to `COc1ccc(-c2ccc(=O)n(CC(=O)NN=Cc3ccccc3)n2)cc1F` [VIa, N’-benzylidene-2-(3-(3-fluoro-4-methoxyphenyl)-6-oxopyridazin-1(6H)-yl)acetohydrazide], the melting point came to 132 °C. Besides, in data set [3], the “Effect on 5-HT-induced KA depletion” value is “failed to prevent the inhibition of KA level”. `COc1ccc(-c2ccc(=O)n(CC(=O)NN=Cc3ccc(C)cc3)n2)cc1F` [VIg, N’-(4-methylbenzylidene)-2–(3-(3-fluoro-4-methoxyphenyl)-6-oxopyridazin-1(6H)-yl)acetohydrazide] showed a melting point of 220 °C.

For the compound `COc1ccc(-c2ccc(=O)n(CC(=O)NN=Cc3ccc(Cl)cc3Cl)n2)cc1F` [VIo, N’-(2,4-dichlorobenzylidene)-2–(3-(3-fluoro-4-methoxyphenyl)-6-oxopyridazin-1(6H)-yl)acetohydrazide], the melting point was 229 °C. As to `COc1ccc(-c2ccc(=O)n(CC(=O)NN=Cc3ccc(O)cc3)n2)cc1F` [VIn, N’-(4-hydroxybenzylidene)-2–(3-(3-fluoro-4-methoxyphenyl)-6-oxopyridazin-1(6H)-yl)acetohydrazide], the melting point stood at 251 °C. Same read-out and setting: in the case of `COc1ccc(-c2ccc(=O)n(CC(=O)NN=Cc3ccc(Br)cc3)n2)cc1F` [VIm, N’-(4-bromobenzylidene)-2–(3-(3-fluoro-4-methoxyphenyl)-6-oxopyridazin-1(6H)-yl)acetohydrazide] it was 256 °C. With `COc1ccc(-c2ccc(=O)n(CC(=O)NN=Cc3ccccc3C)n2)cc1F` [VIe, N’-(2-methylbenzylidene)-2–(3-(3-fluoro-4-methoxyphenyl)-6-oxopyridazin-1(6H)-yl)acetohydrazide], the melting point came out at 210 °C. The IC50 in the data set on HCT116 cells [1] (setting [4]) was 3.09 µg/mL (≈ 7.83 µM). Also, in the data set on HCT116 cells [2], the “Effect on spontaneous migration of HCT116 cells” value was “null effects”. For `COc1cccc2c1C(=O)c1c(O)c3c(c(O)c1C2=O)C[C@@](O)(C(C)=O)C[C@@H]3O[C@H]1C[C@H](N)[C@H](O)[C@H](C)O1` [daunorubicin, reference compound], in the data set on HCT116 cells [1] (HCT-116, read-out: IC50 (HCT116 cell viability)), the IC50 was 1.39 µg/mL (≈ 2.63 µM). On to `COc1ccc(-c2ccc(=O)n(CC(=O)NN=Cc3ccc(C(C)C)cc3)n2)cc1F` [VIj, N’-(4-isopropylbenzylidene)-2–(3-(3-fluoro-4-methoxyphenyl)-6-oxopyridazin-1(6H)-yl)acetohydrazide], for which the melting point was determined as 164 °C. As for `COc1ccc(-c2ccc(=O)n(CC(=O)NN=Cc3ccc(F)cc3)n2)cc1F` [VIb, N’-(4-fluorobenzylidene)-2–(3-(3-fluoro-4-methoxyphenyl)-6-oxopyridazin-1(6H)-yl)acetohydrazide], the melting point came to 238 °C. In addition, in data set [3], the “Effect on 5-HT-induced KA depletion” value was “failed to prevent the inhibition of KA level”. `COc1ccc(-c2ccc(=O)n(CC(=O)NN=Cc3ccccc3OC)n2)cc1F` [VIf, N’-(2-methoxybenzylidene)-2–(3-(3-fluoro-4-methoxyphenyl)-6-oxopyridazin-1(6H)-yl)acetohydrazide] came in with a melting point of 214 °C.

As to `COc1ccc(C=NNC(=O)Cn2nc(-c3ccc(OC)c(F)c3)ccc2=O)cc1` [VIh, N’-(4-methoxybenzylidene)-2–(3-(3-fluoro-4-methoxyphenyl)-6-oxopyridazin-1(6H)-yl)acetohydrazide], the melting point worked out at 207 °C. Same read-out and setting: in the case of `COc1ccc(-c2ccc(=O)n(CC(=O)NN=Cc3ccccc3F)n2)cc1F` [VId, N’-(2-fluorobenzylidene)-2–(3-(3-fluoro-4-methoxyphenyl)-6-oxopyridazin-1(6H)-yl)acetohydrazide] it was 222 °C and 224 °C. On the same count and under the same terms, in the case of `COc1ccc(-c2ccc(=O)n(CC(=O)NN=Cc3ccc([N+](=O)[O-])cc3)n2)cc1F` [VIi, N’-(4-nitrobenzylidene)-2–(3-(3-fluoro-4-methoxyphenyl)-6-oxopyridazin-1(6H)-yl)acetohydrazide] it was 265 °C. Regarding `NCCc1c[nH]c2ccc(O)cc12` [Compound 5-HT, serotonin, reference compound], in the data set on HCT116 cells [1] (5-HT 10 pg/mL – 1 µg/mL, MTT test), the “Effect of 5-HT on HCT116 cell viability” value is reported as “increased in a concentration-dependent manner”.

Values taken from PMC7191905, “Synthesis and biological evaluation of new 3(2H)-pyridazinone derivatives as non-toxic anti-proliferative compounds against human colon carcinoma HCT116 cells” (Journal of Enzyme Inhibition and Medicinal Chemistry, 2020).
